{"source": "patent US8765730B2", "about": "(Hoffmann-La Roche Inc, priority 2010, dated 2014)"}
{"target": "T1, human GPBAR1 receptor (Homo sapiens, UniProt Q8TDU6)", "T1 construct": "expressed in transfected cells", "T1 sequence (Q8TDU6 1-330)": "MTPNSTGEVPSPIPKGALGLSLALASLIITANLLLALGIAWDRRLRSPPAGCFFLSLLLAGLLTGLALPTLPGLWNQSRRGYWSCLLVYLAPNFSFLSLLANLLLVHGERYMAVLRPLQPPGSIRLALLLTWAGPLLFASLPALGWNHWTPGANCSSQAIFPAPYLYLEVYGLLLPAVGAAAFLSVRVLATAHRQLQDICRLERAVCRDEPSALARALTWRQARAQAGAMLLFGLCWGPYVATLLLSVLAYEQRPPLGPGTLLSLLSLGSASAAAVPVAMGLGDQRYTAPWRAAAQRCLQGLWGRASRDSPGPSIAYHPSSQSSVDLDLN", "assay": "functional cAMP assay in CHO-dhfr(minus) cells expressing human GPBAR1 receptors", "assay_type": "cell-based", "conditions": "human EC50, functional cAMP assay, 30 min at 30° C.", "summary_of_the_method": "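Agonist cAMP read-out: stable GPBAR1 CHO-dhfr− clone, 30 min compound exposure at 30° C following 30 min IBMX (1 mM) preincubation in Krebs Ringer bicarbonate. Time-resolved energy-transfer detection gives EC50; parental CHO cells serve as counter-screen.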", "units": {"EC50": "nM"}}
{"compound": "Cc1cc(F)ccc1C(C/C(=N\\O)c1ccc(=O)n(C)c1)c1ccc(-c2ccc(S(N)(=O)=O)cc2)cc1", "note": "(stereo not shown) [Example 401, 4′-[1-(4-Fluoro-2-methyl-phenyl)-3-[(E)-hydroxyimino]-3-(1-methyl-6-oxo-1,6-dihydro-pyridin-3-yl)-propyl]-biphenyl-4-sulfonic acid amide]", "EC50": 5}
{"compound": "Cn1cc(/C(CC(c2ccc(Br)cc2)c2ccc(F)cc2F)=N/O)ccc1=O", "note": "(stereo not shown) [Example 402, 5-{3-(4-Bromo-phenyl)-3-(2,4-difluoro-phenyl)-1-[(E)-hydroxyimino]-propyl}-1-methyl-1H-pyridin-2-one]", "EC50": 6}
{"compound": "Cn1cc(/C(CC(c2ccc(-c3ccc(C(=O)O)cc3)cc2)c2ccc(F)cc2F)=N/O)ccc1=O", "note": "(stereo not shown) [Example 403, 4′-[1-(2,4-Difluoro-phenyl)-3-[(E)-hydroxyimino]-3-(1-methyl-6-oxo-1,6-dihydro-pyridin-3-yl)-propyl]-biphenyl-4-carboxylic acid]", "EC50": 138}
{"compound": "Cc1ccc(C(C/C(=N\\O)c2ccc(=O)n(C)c2)c2ccc(Br)cc2)c(F)c1", "note": "(stereo not shown) [Example 408, (E)-5-(3-(4-bromophenyl)-3-(2-fluoro-4-methylphenyl)-1-(hydroxyimino)propyl)-1-methylpyridin-2(1H)-one]", "EC50": 118}
{"compound": "Cn1cc(/C(CC(c2ccc(Br)cc2)c2ccc(F)cc2S(C)(=O)=O)=N/O)ccc1=O", "note": "(stereo not shown) [Example 409, (E)-5-{3-(4-Bromo-phenyl)-3-(4-fluoro-2-methanesulfonyl-phenyl)-1-(hydroxyimino)-propyl}-1-methyl-1H-pyridin-2-one]", "EC50": 210}
{"compound": "Cn1cc(/C(CC(c2ccc(Br)cc2)c2ccc(F)cc2Cl)=N/O)ccc1=O", "note": "(stereo not shown) [Example 410, (E)-5-(3-(4-bromophenyl)-3-(2-chloro-4-fluorophenyl)-1-(hydroxyimino)propyl)-1-methylpyridin-2(1H)-one]", "EC50": 11}
{"compound": "Cc1ccc(C(C/C(=N\\O)c2ccc(=O)n(C)c2)c2ccc(-c3ccc(C(=O)O)cc3)cc2)c(F)c1", "note": "(stereo not shown) [Example 411, (E)-4′-(1-(2-fluoro-4-methylphenyl)-3-(hydroxyimino)-3-(1-methyl-6-oxo-1,6-dihydropyridin-3-yl)propyl)biphenyl-4-carboxylic acid]", "EC50": 995}
{"compound": "Cn1cc(/C(CC(c2ccc(-c3ccc(C(=O)O)cc3)cc2)c2ccc(F)cc2Cl)=N/O)ccc1=O", "note": "(stereo not shown) [Example 412, (E)-4′-(1-(2-chloro-4-fluorophenyl)-3-(hydroxyimino)-3-(1-methyl-6-oxo-1,6-dihydropyridin-3-yl)propyl)biphenyl-4-carboxylic acid]", "EC50": 30}
{"compound": "Cc1cc(/C(C[C@H](c2ccc(-c3nnc(C)o3)cc2)c2ccccc2C)=N/O)ccn1", "note": "[Example 417, ((−), E)-3-[4-(5-Methyl-[1,3,4]oxadiazol-2-yl)-phenyl]-1-(2-methyl-pyridin-4-yl)-3-o-tolyl-propan-1-one oxime]", "EC50": 8}
{"compound": "Cc1cc(/C(C[C@H](c2ccc(-c3nnc(C4CC4)o3)cc2)c2ccccc2C)=N/O)ccn1", "note": "[Example 418, ((−), E)-3-(4-(5-Cyclopropyl-1,3,4-oxadiazol-2-yl)phenyl)-1-(2-methylpyridin-4-yl)-3-o-tolylpropan-1-one oxime]", "EC50": 4}
{"compound": "COCc1nnc(-c2ccc([C@@H](C/C(=N\\O)c3ccnc(C)c3)c3ccccc3C)cc2)o1", "note": "[Example 419, ((−), E)-3-[4-(5-Methoxymethyl-[1,3,4]oxadiazol-2-yl)-phenyl]-1-(2-methyl-pyridin-4-yl)-3-o-tolyl-propan-1-one oxime]", "EC50": 8}
{"compound": "COCCc1nnc(-c2ccc([C@@H](C/C(=N\\O)c3ccnc(C)c3)c3ccccc3C)cc2)o1", "note": "[Example 420, ((−), E)-3-{4-[5-(2-Methoxy-ethyl)[1,3,4]oxadiazol-2-yl]-phenyl}-1-(2-methyl-pyridin-4-yl)-3-o-tolyl-propan-1-one oxime]", "EC50": 15}
{"compound": "Cc1cc(/C(C[C@H](c2ccc(-c3nnc(C4CCOCC4)o3)cc2)c2ccccc2C)=N/O)ccn1", "note": "[Example 421, ((−), E)-1-(2-Methyl-pyridin-4-yl)-3-{4-[5-(tetrahydro-pyran-4-yl)-[1,3,4]oxadiazol-2-yl]-phenyl}-3-o-tolyl-propan-1-one oxime]", "EC50": 30}
{"compound": "Cc1cc(/C(C[C@H](c2ccc(-c3ncco3)cc2)c2ccccc2C)=N/O)ccn1", "note": "[Example 423]", "EC50": 2}
{"compound": "Cc1cc(/C(C[C@H](c2ccc(-c3cn(C)nn3)cc2)c2ccccc2C)=N/O)ccn1", "note": "[Example 424, (−)-1-(2-Methyl-pyridin-4-yl)-3-[4-(1-methyl-1H-[1,2,3]triazol-4-yl)-phenyl]-3-o-tolyl-propan-1-one oxime]", "EC50": 1}
{"compound": "Cc1cc(/C(CC(c2ccc(C(=O)O)cc2)c2ccc(F)cc2F)=N/O)ccn1", "note": "(stereo not shown) [Example 431, 4-[1-(2,4-Difluoro-phenyl)-3-[(E)-hydroxyimino]-3-(2-methyl-pyridin-4-yl)-propyl]-benzoic acid]", "EC50": 465}
{"compound": "Cc1cc(/C(CC(c2ccc(C(=O)NC3CC3)cc2)c2ccc(F)cc2F)=N/O)ccn1", "note": "(stereo not shown) [Example 432, N-Cyclopropyl-4-[1-(2,4-difluoro-phenyl)-3-[(E)-hydroxyimino]-3-(2-methyl-pyridin-4-yl)-propyl]-benzamide]", "EC50": 57}
{"compound": "Cc1cc(/C(CC(c2ccc(C(=O)NCCO)cc2)c2ccc(F)cc2F)=N/O)ccn1", "note": "(stereo not shown) [Example 433, 4-[1-(2,4-Difluoro-phenyl)-3-[(E)-hydroxyimino]-3-(2-methyl-pyridin-4-yl)-propyl]-N-(2-hydroxy-ethyl)-benzamide]", "EC50": 55}
{"compound": "Cc1cc(/C(CC(c2ccc(C(=O)NC[C@@H](C)O)cc2)c2ccc(F)cc2F)=N/O)ccn1", "note": "(stereo partly drawn) [Example 434, 4-[1-(2,4-Difluoro-phenyl)-3-[(E)-hydroxyimino]-3-(2-methyl-pyridin-4-yl)-propyl]-N—((R)-2-hydroxy-propyl)-benzamide]", "EC50": 49}
{"compound": "Cc1cc(/C(CC(c2ccc(C(=O)NC(C)(C)CO)cc2)c2ccc(F)cc2F)=N/O)ccn1", "note": "(stereo not shown) [Example 435, 4-[1-(2,4-Difluoro-phenyl)-3-[(E)-hydroxyimino]-3-(2-methyl-pyridin-4-yl)-propyl]-N-(2-hydroxy-1,1-dimethyl-ethyl)-benzamide]", "EC50": 66}
{"compound": "Cc1cc(/C(CC(c2ccc(C(=O)NC3CCCCC3)cc2)c2ccc(F)cc2F)=N/O)ccn1", "note": "(stereo not shown) [Example 436, N-Cyclohexyl-4-[1-(2,4-difluoro-phenyl)-3-[(E)-hydroxyimino]-3-(2-methyl-pyridin-4-yl)-propyl]-benzamide]", "EC50": 62}
{"compound": "Cc1cc(/C(CC(c2ccc(C(=O)N3CCC(F)(F)CC3)cc2)c2ccc(F)cc2F)=N/O)ccn1", "note": "(stereo not shown) [Example 437, 3-(2,4-Difluoro-phenyl)-3-[4-(4,4-difluoro-piperidine-1-carbonyl)-phenyl]-1-(2-methyl-pyridin-4-yl)-propan-1-one oxime]", "EC50": 75}
{"compound": "Cc1cc(/C(CC(c2ccc(C(=O)N3CCOCC3)cc2)c2ccc(F)cc2F)=N/O)ccn1", "note": "(stereo not shown) [Example 438, 3-(2,4-Difluoro-phenyl)-1-(2-methyl-pyridin-4-yl)-3-[4-(morpholine-4-carbonyl)-phenyl]-propan-1-one oxime]", "EC50": 132}
{"compound": "Cc1cc(/C(CC(c2ccc(C(=O)N3CCN(S(C)(=O)=O)CC3)cc2)c2ccc(F)cc2F)=N/O)ccn1", "note": "(stereo not shown) [Example 439, 3-(2,4-Difluoro-phenyl)-3-[4-(4-methanesulfonyl-piperazine-1-carbonyl)-phenyl]-1-(2-methyl-pyridin-4-yl)-propan-1-one oxime]", "EC50": 81}
{"compound": "Cc1cc(/C(CC(c2ccc(C(=O)NC3CCS(=O)(=O)CC3)cc2)c2ccc(F)cc2F)=N/O)ccn1", "note": "(stereo not shown) [Example 440, 4-[1-(2,4-Difluoro-phenyl)-3-[(E)-hydroxyimino]-3-(2-methyl-pyridin-4-yl)-propyl]-N-(1,1-dioxo-hexahydro-1λ^6-thiopyran-4-yl)-benzamide]", "EC50": 148}
{"compound": "Cc1cc(/C(CC(c2ccc(C(=O)NCCN3CCS(=O)(=O)CC3)cc2)c2ccc(F)cc2F)=N/O)ccn1", "note": "(stereo not shown) [Example 441, 4-[1-(2,4-Difluoro-phenyl)-3-[(E)-hydroxyimino]-3-(2-methyl-pyridin-4-yl)-propyl]-N-[2-(1,1-dioxo-1λ^6-thiomorpholin-4-yl)-ethyl]-benzamide]", "EC50": 39}
{"compound": "Cc1cc(/C(CC(c2ccc(C(F)(F)F)cc2)c2ccc(F)cc2F)=N/O)ccn1", "note": "(stereo not shown) [Example 442, 3-(2,4-Difluoro-phenyl)-1-(2-methyl-pyridin-4-yl)-3-(4-trifluoromethyl-phenyl)-propan-1-one oxime]", "EC50": 109}
{"compound": "Cc1cc(/C(CC(c2ccc(N3CCOCC3)nc2)c2ccc(F)cc2F)=N/O)ccn1", "note": "(stereo not shown) [Example 443, 3-(2,4-Difluoro-phenyl)-1-(2-methyl-pyridin-4-yl)-3-(6-morpholin-4-yl-pyridin-3-yl)-propan-1-one oxime]", "EC50": 98}
{"compound": "CC(=O)N1CCN(c2ccc(C(CC(=NO)c3ccnc(C)c3)c3ccc(F)cc3F)cn2)CC1", "note": "(stereo not shown) [Example 444, 3-[6-(4-Acetyl-piperazin-1-yl)-pyridin-3-yl]-3-(2,4-difluoro-phenyl)-1-(2-methyl-pyridin-4-yl)-propan-1-one oxime]", "EC50": 103}
{"compound": "Cc1cc(/C(CC(c2ccc(Br)cc2)c2cc(F)cc(F)c2)=N/O)ccn1", "note": "(stereo not shown) [Example 445, 3-(4-Bromo-phenyl)-3-(3,5-difluoro-phenyl)-1-(2-methyl-pyridin-4-yl)-propan-1-one oxime]", "EC50": 27}
{"compound": "COC(=O)c1ccc(-c2ccc(C(C/C(=N\\O)c3ccnc(C)c3)c3ccc(Cl)cc3F)cc2)cc1F", "note": "(stereo not shown) [Example 446, 4′-[1-(4-Chloro-2-fluoro-phenyl)-3-[(E)-hydroxyimino]-3-(2-methyl-pyridin-4-yl)-propyl]-3-fluoro-biphenyl-4-carboxylic acid methyl ester]", "EC50": 59}
